Target: T1, recombinant human ASK1 protein (Homo sapiens, UniProt Q99683)
T1 sequence (Q99683 1-1374): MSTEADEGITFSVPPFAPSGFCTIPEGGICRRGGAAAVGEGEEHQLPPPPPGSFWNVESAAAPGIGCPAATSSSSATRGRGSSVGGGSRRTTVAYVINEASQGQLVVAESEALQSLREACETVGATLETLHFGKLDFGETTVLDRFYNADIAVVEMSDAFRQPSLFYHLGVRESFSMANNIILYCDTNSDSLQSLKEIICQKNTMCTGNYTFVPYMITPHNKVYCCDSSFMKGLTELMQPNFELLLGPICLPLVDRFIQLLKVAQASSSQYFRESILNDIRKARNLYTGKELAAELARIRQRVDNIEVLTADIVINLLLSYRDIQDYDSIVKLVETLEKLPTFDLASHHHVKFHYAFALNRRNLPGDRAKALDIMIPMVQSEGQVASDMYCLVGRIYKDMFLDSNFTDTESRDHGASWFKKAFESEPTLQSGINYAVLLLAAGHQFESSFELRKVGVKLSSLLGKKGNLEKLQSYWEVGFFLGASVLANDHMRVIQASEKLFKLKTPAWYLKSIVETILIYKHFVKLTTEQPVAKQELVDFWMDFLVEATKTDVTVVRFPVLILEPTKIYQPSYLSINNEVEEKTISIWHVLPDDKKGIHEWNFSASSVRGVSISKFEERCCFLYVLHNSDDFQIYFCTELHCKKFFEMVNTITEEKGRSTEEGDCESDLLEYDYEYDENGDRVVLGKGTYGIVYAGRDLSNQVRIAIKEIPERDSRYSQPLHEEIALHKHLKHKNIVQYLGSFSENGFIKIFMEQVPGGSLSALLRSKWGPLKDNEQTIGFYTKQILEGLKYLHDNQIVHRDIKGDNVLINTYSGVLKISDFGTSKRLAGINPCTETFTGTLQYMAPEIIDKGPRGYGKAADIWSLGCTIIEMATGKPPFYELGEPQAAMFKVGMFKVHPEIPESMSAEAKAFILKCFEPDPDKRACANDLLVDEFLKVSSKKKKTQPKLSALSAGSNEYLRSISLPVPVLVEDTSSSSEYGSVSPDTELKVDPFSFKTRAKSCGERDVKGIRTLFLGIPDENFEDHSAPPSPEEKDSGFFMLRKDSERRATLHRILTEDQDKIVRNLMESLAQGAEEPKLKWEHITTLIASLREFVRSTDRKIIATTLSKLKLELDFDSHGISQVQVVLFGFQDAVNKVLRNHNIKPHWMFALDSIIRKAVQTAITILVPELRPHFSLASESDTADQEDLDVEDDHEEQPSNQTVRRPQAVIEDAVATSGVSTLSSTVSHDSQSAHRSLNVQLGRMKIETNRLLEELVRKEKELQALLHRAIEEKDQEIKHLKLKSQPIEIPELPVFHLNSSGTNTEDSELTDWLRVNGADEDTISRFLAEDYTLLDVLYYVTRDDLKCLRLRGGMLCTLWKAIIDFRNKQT
Assay: Evaluation of ASK1 inhibition activity ([gamma-33P]-ATP, scintillation counting)
Assay type: biochemical
Settings: for remaining activity at 0.5 µM: activity of group without compound set at 100%, read-out: Remaining kinase activity (%) at 0.5 uM
Method: The recombinant human ASK1 protein was initiated by adding a mixture of Mg/ATP to the reaction solution (8 mM MOPS PH 7.0, 0.2 mM EDTA, 0.33 mg/mL myelin basic protein, 10 mM Mg Acetate and [gamma-33P]-ATP), and the reaction was terminated by adding 0.5% phosphoric acid after 40 min at room temperature.

Row | remaining activity at 0.5 µM [%] | IC50 [nM] | SMILES
1 | 9 |  | CC(C)Oc1ccc(-n2cnc(C3CC3)c2)cc1C(=O)Nc1cccc(-n2nnc3c2CCCC3)n1 [Example 19, 5-(4-cyclopropyl-1H-imidazol-1-yl)-2-isopropoxy-N-(6-(4,5,6,7-tetrahydro-1H-benzo[d][1,2,3]triazol-1-yl)pyridin-2-yl)benzamide]
2 | 11 |  | CCOc1ccc(-n2cnc(C3CC3)c2)cc1C(=O)Nc1cccc(-n2nnc3c2CCC3)n1 [Example 16, 5-(4-cyclopropyl-1H-imidazol-1-yl)-N-(6-(5,6-dihydrocyclopenta[d][1,2,3]triazol-1 (4H)-yl)pyridin-2-yl)-2-ethoxybenzamide]
3 | 14 |  | O=C(Nc1cccc(-n2nnc3c2CCCC3)n1)c1cc(-n2cnc(C3CC3)c2)ccc1OC(F)(F)F [Example 25, 5-(4-cyclopropyl-1H-imidazol-1-yl)-N-(6-(4,5,6,7-tetrahydro-1H-benzo[d][1,2,3]triazol-1-yl)pyridin-2-yl)-2-(trifluoromethoxy)benzamide]
4 | 5 |  | O=C(Nc1cccc(-n2nnc3c2CCC3)n1)c1cc(-n2cnc(C3CC3)c2)ccc1OC(F)(F)F [Example 24, 5-(4-cyclopropyl-1H-imidazol-1-yl)-N-(6-(5,6-dihydrocyclopenta[d][1,2,3]triazol-1 (4H)-yl)pyridin-2-yl)-2-(trifluoromethoxy)benzamide]
5 | 8 |  | Cc1cc(OC(F)F)c(C(=O)Nc2cccc(-n3nnc4c3CCCC4)n2)cc1-n1cnc(C2CC2)c1 [Example 15, 5-(4-cyclopropyl-1H-imidazol-1-yl)-2-(difluoromethoxy)-4-methyl-N-(6-(4,5,6,7-tetrahydro-1H-benzo[d][1,2,3]triazol-1-yl)pyridin-2-yl)benzamide]
6 | 4 |  | O=C(Nc1cccc(-n2nnc3c2CCCC3)n1)c1cc(-n2cnc(C3CC3)c2)ccc1OC(F)F [Example 27]
7 | 1 |  | Cc1cc(OC(F)F)c(C(=O)Nc2cccc(-n3nnc4c3CCC4)n2)cc1-n1cnc(C2CC2)c1 [Example 14, 5-(4-cyclopropyl-1H-imidazol-1-yl)-2-(difluoromethoxy)-N-(6-(5,6-dihydrocyclopenta[d][1,2,3]triazol-1 (4H)-yl)pyridin-2-yl)-4-methylbenzamide]
8 | 3 |  | O=C(Nc1cccc(-n2nnc3c2CCC3)n1)c1cc(-n2cnc(C3CC3)c2)ccc1OCC(F)(F)F [Example 20, 5-(4-cyclopropyl-1H-imidazol-1-yl)-N-(6-(5,6-dihydrocyclopenta[d][1,2,3]triazol-1 (4H)-yl)pyridin-2-yl)-2-(2,2,2-trifluoroethoxy)benzamide]
9 | 38 |  | O=C(Nc1cccc(-n2nnc3c2CCCC3)n1)c1cc(-n2cnc(C3CC3)c2)ccc1OC1CC1 [Example 23, 2-cyclopropoxy-5-(4-cyclopropyl-1H-imidazol-1-yl)-N-(6-(4,5,6,7-tetrahydro-1H-benzo[d][1,2,3]triazol-1-yl)pyridin-2-yl)benzamide]
10 | 9 |  | Cc1cc(OC(C)C)c(C(=O)Nc2cccc(-n3nnc4c3CCCC4)n2)cc1-n1cnc(C2CC2)c1 [Example 13, 5-(4-cyclopropyl-1H-imidazol-1-yl)-2-isopropoxy-4-methyl-N-(6-(4,5,6,7-tetrahydro-1H-benzo[d][1,2,3]triazol-1-yl)pyridin-2-yl)benzamide]
11 | 16 |  | O=C(Nc1cccc(-n2nnc3c2CCCC3)n1)c1cc(-n2cnc(C3CC3)c2)ccc1OCC(F)(F)F [Example 21, 5-(4-cyclopropyl-1H-imidazol-1-yl)-N-(6-(4,5,6,7-tetrahydro-1H-benzo[d][1,2,3]triazol-1-yl)pyridin-2-yl)-2-(2,2,2-trifluoroethoxy)benzamide]
12 | 11 |  | CC(C)Oc1ccc(-n2cnc(C3CC3)c2)cc1C(=O)Nc1cccc(-n2nnc3c2CCC3)n1 [Example 18, 5-(4-cyclopropyl-1H-imidazol-1-yl)-N-(6-(5,6-dihydrocyclopenta[d][1,2,3]triazol-1 (4H)-yl)pyridin-2-yl)-2-isopropoxybenzamide]
13 | 2 |  | CCOc1ccc(-n2cnc(C3CC3)c2)cc1C(=O)Nc1cccc(-n2nnc3c2CCCC3)n1 [Example 17, 5-(4-cyclopropyl-1H-imidazol-1-yl)-2-ethoxy-N-(6-(4,5,6,7-tetrahydro-1H-benzo[d][1,2,3]triazol-1-yl)pyridin-2-yl)benzamide]
14 | 1 |  | O=C(Nc1cccc(-n2nnc3c2CCC3)n1)c1cc(-n2cnc(C3CC3)c2)ccc1OC(F)F [Example 26, 5-(4-cyclopropyl-1H-imidazol-1-yl)-2-(difluoromethoxy)-N-(6-(5,6-dihydrocyclopenta[d][1,2,3]triazol-1 (4H)-yl)pyridin-2-yl)benzamide]

Continued, compound first:

Row | SMILES | remaining activity at 0.5 µM [%] | IC50 [nM]
15 | COc1ccc(-n2cnc(C3CC3)c2)cc1C(=O)Nc1cccc(-n2nnc3c2CCC3)n1 [Example 6, 5-(4-cyclopropyl-1H-imidazol-1-yl)-N-(6-(5,6-dihydrocyclopenta[d][1,2,3]triazol-1 (4H)-yl)pyridin-2-yl)-2-methoxybenzamide] | 0 | 
16 | CCOc1cc(C)c(-n2cnc(C3CC3)c2)cc1C(=O)Nc1cccc(-n2nnc3c2CCC3)n1 [Example 10, 5-(4-cyclopropyl-1H-imidazol-1-yl)-N-(6-(5,6-dihydrocyclopenta[d][1,2,3]triazol-1 (4H)-yl)pyridin-2-yl)-2-ethoxy-4-methylbenzamide] | 14 | 
17 | COc1ccc(-n2cnc(C3CC3)c2)cc1C(=O)Nc1cccc(-n2nnc3c2CCCC3)n1 [Example 7, 5-(4-cyclopropyl-1H-imidazol-1-yl)-2-methoxy-N-(6-(4,5,6,7-tetrahydro-1H-benzo[d][1,2,3]triazol-1-yl)pyridin-2-yl)benzamide] | 2 | 
18 | Cc1cc(F)c(C(=O)Nc2cccc(-n3nnc4ccccc43)n2)cc1-n1cnc(C2CC2)c1 [Example 1, N-(6-(1H-benzo[d][1,2,3]triazole-1-yl)pyridine-2-yl)-5-(4-cyclopropyl-1H-imidazole-1-yl)-2-fluoro-4-methylbenzamide] | 14 | 235
19 | Cc1cc(OC(C)C)c(C(=O)Nc2cccc(-n3nnc4c3CCC4)n2)cc1-n1cnc(C2CC2)c1 [Example 12, 5-(4-cyclopropyl-1H-imidazol-1-yl)-N-(6-(5,6-dihydrocyclopenta[d][1,2,3]triazol-1 (4H)-yl)pyridin-2-yl)-2-isopropoxy-4-methylbenzamide] | 0 | 
20 | CCOc1cc(C)c(-n2cnc(C3CC3)c2)cc1C(=O)Nc1cccc(-n2nnc3c2CCCC3)n1 [Example 11, 5-(4-cyclopropyl-1H-imidazol-1-yl)-2-ethoxy-4-methyl-N-(6-(4,5,6,7-tetrahydro-1H-benzo[d][1,2,3]triazol-1-yl)pyridin-2-yl)benzamide] | 29 | 
21 | Cc1cc(F)c(C(=O)Nc2cccc(-n3nnc4c3CCCCCC4)n2)cc1-n1cnc(C2CC2)c1 [Example 5, 5-(4-cyclopropyl-1H-imidazole-1-yl)-2-fluoro-N-(6-(4,5,6,7,8,9-hexahydro-1H-cycloocta[d][1,2,3]triazole-1-yl)pyridine-2-yl)-4-methylbenzamide] |  | 198
22 | COc1cc(C)c(-n2cnc(C3CC3)c2)cc1C(=O)Nc1cccc(-n2nnc3c2CCC3)n1 [Example 8, 5-(4-cyclopropyl-1H-imidazol-1-yl)-N-(6-(5,6-dihydrocyclopenta[d][1,2,3]triazol-1 (4H)-yl)pyridin-2-yl)-2-methoxy-4-methylbenzamide] | 0 | 
23 | COc1cc(C)c(-n2cnc(C3CC3)c2)cc1C(=O)Nc1cccc(-n2nnc3c2CCCC3)n1 [Example 9, 5-(4-cyclopropyl-1H-imidazol-1-yl)-2-methoxy-4-methyl-N-(6-(4,5,6,7-tetrahydro-1H-benzo[d][1,2,3]triazol-1-yl)pyridin-2-yl)benzamide] | 0 | 

From patent US20260138969A1 (Korea Research Institute of Chemical Technology, priority 2023, published 2026)
